Like-named read-outs stand apart in the source and are kept apart here.
Test system: human cardiac fibroblasts
Settings: 72 h, 10 ng/ml TGFβ; for effect on TGFβ-induced collagen production: Sirius Red
Method: Primary cardiac fibroblasts were isolated and cultured according to the method described previously [11]. […] The suspension was centrifuged at 300 g for 5 min and the cell pellet was resuspended in DMEM F12 medium (Sigma D6434) supplemented with 10% FBS, penicillin (20 U/mL)-streptomycin (20 μg/mL) and 2 mM glutamine and cultured in a 37° C., 5% CO2 incubator. Primary cardiac fibroblasts were used up to passage 3. Cardiac fibroblasts were exposed to 10 ng/ml TGFβ (T) for 72 h in the presence or absence of 5 μM lovastatin (L) or 5 nM dasatinib (D) or combination of 5 μM lovastatin and 5 nM dasatinib (DL).
Following treatment, cardiac fibroblasts were fixed in methanol, and incubated in the 0.1% Picrosirius red staining solution (Sigma-Aldrich, France) as per manufacturer's instructions.
Picrosirius red was solubilised in 0.1 N sodium hydroxide and the optical density was read at 540 nm (SERLABO Technologies, France).
Data are expressed as mean±SEM. Comparison between two groups was performed by Student's two-tailed t-test while comparison of multiple groups was performed by one-way ANOVA followed by a Bonferroni's post hoc test using GraphPad Prism version 5.00 (GraphPad Software, Inc).

Compound	collagen values relative to control (5 μM lovastatin)	effect on TGFβ-induced collagen production (5 μM lovastatin)	collagen values relative to control (5 nM dasatinib)	effect on TGFβ-induced collagen production (5 nM dasatinib)
CCC(C)C(=O)OC1CC(C)C=C2C=CC(C)C(CCC3CC(O)CC(=O)O3)C21 (stereo not shown) [lovastatin, [8-[2-(4-hydroxy-6-oxo-oxan-2-yl)ethyl]-3,7-dimethyl-1,2,3,7,8,8a-hexahydronaphthalen-1-yl] 2-methylbutanoate]	did not reach control values	modest but significant effects		
Cc1nc(Nc2ncc(C(=O)Nc3c(C)cccc3Cl)s2)cc(N2CCN(CCO)CC2)n1 [dasatinib, N-(2-chloro-6-methylphenyl)-2-[6-[4-(2-hydroxyethyl)-1-piperazinyl]-2-methyl-4-pyrimidinyl]amino]-5-thiazole carboxamide monohydrate]			did not reach control values	modest but significant effects

Reference: US20250195519A1, “COMBINATION OF DASATINIB AND LOVASTATIN FOR USE IN METHODS FOR THE TREATMENT OF CARDIAC FIBROSIS” (INSERM (INSTITUT NATIONAL DE LA SANTÉ ET DE LA RECHERCHE …, priority 2022, published 2025)
